Measured values as given in ChEMBL document CHEMBL4334516, “Kinase Chemodiversity from the Arctic: The Breitfussins” (J Med Chem, 2019).

Tests used:
[1] = Toxicity in zebrafish embryos assessed as survival at 140 uM after 72 hrs (reference value: 95%); set-up: species or system Danio rerio; details: in vivo
[2] = Cytotoxicity in human MT3 cells assessed as reduction in cell viability incubated for 72 hrs by SRB assay; details: MT-3, 72 h
[3] = target: Mitogen-activated protein kinase kinase kinase 9 (Homo sapiens, UniProt P80192); test: Inhibition of MLK1 (unknown origin) assessed as residual enzyme activity at 50 uM by [33P]-ATP filter binding kinase assay relative to control
[4] = target: Casein kinase I isoform epsilon (Homo sapiens, UniProt P49674); test: Binding affinity to wild-type human full length CSNK1E (M1 to K416 residues) expressed in bacterial expression system by active-site directed competition binding assay based Kinomescan method
[5] = target: Tyrosine-protein kinase JAK1 (Homo sapiens, UniProt P23458); test: Binding affinity to wild-type human partial length JAK1 JH2 domain-pseudokinase expressed in bacterial expression system by active-site directed competition binding assay based Kinomescan method
[6] = Unbound fraction in human plasma at 5 uM incubated for 6 hrs at 37 degC by LC-MS analysis based equilibrium dialysis; format: ADME, cell-free
[7] = Stability in human plasma assessed as parent compound remaining level at 5 uM incubated for 1 hr by LC-MS analysis; format: ADME, cell-free; details: read-out: Stability
[8] = target: T1, Mitogen-activated protein kinase kinase kinase kinase 2 (Homo sapiens) (UniProt Q12851); test: Binding affinity to wild-type human partial length GCK (M1 to G318 residues) expressed in mammalian expression system assessed as residual binding level at 10 uM by active-site directed competition binding assay based Kinomescan method relative to control
T1 sequence (whole entry): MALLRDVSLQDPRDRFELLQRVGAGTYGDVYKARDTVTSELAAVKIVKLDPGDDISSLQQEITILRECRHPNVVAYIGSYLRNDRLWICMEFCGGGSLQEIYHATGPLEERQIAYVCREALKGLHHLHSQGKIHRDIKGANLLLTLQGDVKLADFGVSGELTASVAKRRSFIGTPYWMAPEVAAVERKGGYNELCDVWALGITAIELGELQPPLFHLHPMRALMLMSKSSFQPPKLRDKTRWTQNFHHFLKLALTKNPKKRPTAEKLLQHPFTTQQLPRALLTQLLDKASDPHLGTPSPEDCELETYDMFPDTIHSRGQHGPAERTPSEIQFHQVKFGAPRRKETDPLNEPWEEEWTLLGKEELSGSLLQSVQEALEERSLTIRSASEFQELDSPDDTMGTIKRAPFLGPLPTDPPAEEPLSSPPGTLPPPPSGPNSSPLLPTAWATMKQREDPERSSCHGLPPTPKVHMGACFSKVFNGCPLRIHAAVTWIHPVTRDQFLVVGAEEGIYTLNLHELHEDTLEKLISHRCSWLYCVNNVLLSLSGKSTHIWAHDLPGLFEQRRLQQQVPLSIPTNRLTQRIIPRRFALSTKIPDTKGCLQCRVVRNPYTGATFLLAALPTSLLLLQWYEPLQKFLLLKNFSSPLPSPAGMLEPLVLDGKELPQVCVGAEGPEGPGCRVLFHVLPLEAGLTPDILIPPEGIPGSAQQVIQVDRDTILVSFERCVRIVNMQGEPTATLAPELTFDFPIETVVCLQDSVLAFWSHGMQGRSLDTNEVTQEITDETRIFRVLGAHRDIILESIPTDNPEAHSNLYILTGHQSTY

[9] = target: Mitogen-activated protein kinase kinase kinase 11 (Homo sapiens, UniProt Q16584); test: Inhibition of MLK3 (unknown origin) assessed as residual enzyme activity at 1 uM by [33P]-ATP filter binding kinase assay relative to control
[10] = Toxicity in zebrafish embryos assessed as induction of tail degeneration by measuring unaffected embryos level at 0.1 uM after 72 hrs (reference value: 100%); format: tissue-based, Danio rerio; details: in vivo
SK-BR-3 = test: Cytotoxicity in human SK-BR-3 cells assessed as reduction in cell viability incubated for 72 hrs by SRB assay; details: SK-BR-3, 72 h
[11] = target: Serine/threonine-protein kinase pim-1 (Homo sapiens, UniProt P11309); test: Binding affinity to wild-type human partial length PIM1 (A15 to K313 residues) expressed in bacterial expression system by active-site directed competition binding assay based Kinomescan method
[12] = target: Serine/threonine-protein kinase pim-2 (Homo sapiens, UniProt Q9P1W9); test: Binding affinity to wild-type human partial length PIM2 (M1 to E291 residues) expressed in bacterial expression system assessed as residual binding level at 10 uM by active-site directed competition binding assay based Kinomescan method relative to control
[13] = Toxicity in zebrafish embryos assessed as survival at 0.1 uM after 72 hrs (reference value: 95%); set-up: species or system Danio rerio; details: in vivo
[14] = target: Phosphatidylinositol 4-kinase beta (Homo sapiens, UniProt Q9UBF8); test: Binding affinity to wild-type human full length PIK4CB (M1 to M828 residues) expressed in mammalian expression system by active-site directed competition binding assay based Kinomescan method
[15] = Toxicity in zebrafish embryos at 0.1 to 1396 uM after 72 hrs; set-up: species or system Danio rerio; details: in vivo, read-out: LD50
[16] = Permeability assessed as drug flux at 500 uM incubated for 20 hrs by PAMPA; format: ADME
[17] = target: T2, Serine/threonine-protein kinase pim-3 (Homo sapiens, UniProt Q86V86); test: Binding affinity to wild-type human partial length PIM3 (G16 to A317 residues) expressed in bacterial expression system assessed as residual binding level at 10 uM by active-site directed competition binding assay based Kinomescan method relative to control
[18] = target: Serine/threonine-protein kinase DCLK3 (Homo sapiens, UniProt Q9C098); test: Binding affinity to wild-type human partial length DCAMKL3 (E140 to V628 residues) expressed in bacterial expression system by active-site directed competition binding assay based Kinomescan method
JIMT-1 = test: Cytotoxicity in human JIMT1 cells assessed as reduction in cell viability incubated for 72 hrs by SRB assay; details: JIMT-1, 72 h
[19] = Toxicity in zebrafish embryos assessed as induction of necrosis by measuring unaffected embryos level at 1.4 uM after 72 hrs (reference value: 100%); set-up: species or system Danio rerio; details: in vivo
[20] = target: cGMP-specific 3',5'-cyclic phosphodiesterase (Homo sapiens, UniProt O76074); test: Inhibition of human recombinant phosphodiesterase type 5 using [3H]cGMP and cGMP incubated for 60 mins by scintillation counting method; details: 1 h
[21] = target: Sodium-dependent noradrenaline transporter (Homo sapiens, UniProt P23975); test: Inhibition of [3H]nisoxetine binding to human recombinant NET incubated for 120 mins by scintillation counting method; details: 2 h
[22] = target: T2, Serine/threonine-protein kinase pim-3; test: Binding affinity to wild-type human partial length PIM3 (G16 to A317 residues) expressed in bacterial expression system by active-site directed competition binding assay based Kinomescan method
Hs-578T = test: cells; details: Homo sapiens, 72 h
[23] = target: Receptor-interacting serine/threonine-protein kinase 2 (Homo sapiens, UniProt O43353); test: Inhibition of RIPK2 (unknown origin) assessed as residual enzyme activity at 50 uM by [33P]-ATP filter binding kinase assay relative to control

Which results are given for `COc1cc2c(-c3cnc(-c4ccc[nH]4)o3)c[nH]c2cc1Br`?
survival at 72 h, 140 µM [1]: 0%; IC50 [2]: 930 nM; Activity [3]: 5%; Kd [4]: 3300 nM; Kd [5]: 1000 nM; Fu [6]: 0.3%; remaining at 1 h, 5 µM [7]: 83%; Activity [8]: 72%; Activity [9]: 20%; Activity [10]: 100%; IC50 (SK-BR-3): 1500 nM; Kd [11]: 1200 nM; Activity [12]: 54%; survival at 72 h, 0.1 µM [13]: 100%; Kd [14]: 2900 nM; LC50 at 72 h [15]: 1400 nM; permeability [16]: 23%; Activity [17]: 21%; Kd [18]: 1800 nM; IC50 (JIMT-1): 4170 nM; Activity [19]: 0%; inhibition (INH) [20]: Active; inhibition (INH) [21]: Active; Kd [22]: 4700 nM; IC50 (Hs-578T): 5220 nM; Activity [23]: 10%
